This is an account of results in article PMC3620930 (Molecular oral microbiology, 2012).

Some targets named below: Lys-gingipain (Porphyromonas gingivalis, UniProt P72197); RgpB (Porphyromonas gingivalis, UniProt P95493); HRgpA (Porphyromonas gingivalis, UniProt P28784).
What all share (experiment): inhibition of amidolytic activity
Common to all, as to assay type: biochemical

Structures are written as SMILES. pKi: −log10 of the molar value. Some results are limits rather than exact numbers.

On to `N=C(N)c1ccc(CC2CCCC(Cc3ccc(C(=N)N)cc3)C2=O)cc1` (stereo not drawn) [2,6-bis-(4-amidinobenzyl)-cyclohexanone], for which the pKi – broadly, the negative decadic logarithm of the Ki, by convention in mol/L – at Lys-gingipain is less than 3.00; at RgpB it was 6.29; on HRgpA, 5.54.

Consider `N=C(N)c1ccccc1` [benzamidine], for which the pKi at Lys-gingipain is less than 3.00; on RgpB, 3.56; on HRgpA, 3.27.

`N=C(N)c1ccc(OCCCCCOc2ccc(C(=N)N)cc2)cc1` [pentamidine]: the values for the pKi at Lys-gingipain, on RgpB and on HRgpA were less than 3.00, 4.39 and 3.97, respectively.
